Reference: paper PMC6278568, “Discovery of 3-Amino-2-Hydroxypropoxyisoflavone Derivatives as Potential Anti-HCV Agents” (Molecules, 2018)
“Also recorded” adds a separate entry of the source. Like-named read-outs stand apart in the source and are kept apart here.

Columns and labels:
HCV replication = assay: Anti-HCV activity in Ava-5 HCV subgenomic replicon cells (firefly luciferase assay); type: cell-based, Hepatitis C virus; conditions: Ava-5 cells; for EC50: treated for three days, firefly luciferase assay, read-out: EC50 (concentration resulting in a 50% inhibition in virus production / HCV replication); for anti-HCV activity compared with ribavirin (in words): three days
Protocol: Ava-5 cells were treated with compounds 6a–i or the positive ribavirin for three days, and then analyzed through firefly luciferase assay. The concentration that inhibited 50% HCV replication (EC50), the concentration that inhibited 50% cell growth (CC50), and the selectivity index (SI: CC50/EC50) of compounds were determined with ribavirin as a positive control.
(§1) Compounds were dissolved in DMSO at 10 mM and then diluted in culture medium.
(§2) Ava5 cells, an engineered HCV subgenomic replicon cell line, were cultured in Dulbecco′s modified Eagle′s medium (DMEM) with 10% heat-inactivated fetal bovine serum, 1% antibiotic–antimycotic, and 1% non-essential amino acids. Ava5 cells were maintained in DMEM with 1 mg mL^−1 G418 to maintain the stable expression of replicon.

ava-5 cells = assay: Cytotoxicity in Ava-5 cells (XTT method); type: cell-based; conditions: Ava-5 cells, 72 h, XTT method; read-out: CC50 (concentration causing a 50% growth inhibition of uninfected ava-5 cells)
Protocol: as §1, §2
(§3) For cytotoxicity tests, run in parallel with antiviral assays, plates at an initial density of (5 × 10^3 cells/well) were treated with or without serial dilutions of test compounds. Cell viability was determined after 72 h at 37 °C in a humidified CO2 (5%) atmosphere by the (2,3-bis[2-methyloxy-4-nitro-5-sulfophenyl]-2H-tetrazolium-5-carboxanilide) (XTT) method.

HCV genotype 1b = conditions: cited from earlier work
HCV genotype 2a = conditions: cited from earlier work
HCV = conditions: cited from earlier work
[1] = Cytotoxicity in Ava-5 cells (XTT method); type: cell-based; conditions: human, Ava5 cells (HCV subgenomic replicon cell line); Ava-5 cells, 72 h, XTT method; read-out: CC50 (concentration causing a 50% growth inhibition of uninfected ava-5 cells)
Protocol: as §1, §2, §3

HO-1 protein expression = HO-1 protein expression in Ava-5 cells by western blotting; type: cell-based; conditions: 10 μM, 3 days, compared with DMSO-treated cells
Protocol: To determine whether compounds 6b, 6e, 6h and 6i have impact on HO-1 protein expression in Ava-5 cells, we treated these compounds at 10 μM in Ava5 cells.
Ava5 cells were seeded in 24-well plates at a density of 5 × 10^4 cells per well overnight and treated with indicated reagent at proper concentrations for 3 days. Cells were washed with cold phosphate buffer saline (PBS) and lysed by radioimmunoprecipitation assay (RIPA) lysis buffer (50 mM Tris-HCl, pH 7.5, 150 mM NaCl, 1% Nonidet P-40, 2 mM EDTA, 1 mM EGTA, 1 mM NaVO3, 10 mM NaF, 1 mM DTT, 1 mM PMSF, 25 μg/mL aprotinin, and 25 μg/mL leupeptin) and stored at −20 °C. The protein concentration was determined by the Bradford method. Ten μg protein were separated by 10% SDS-PAGE and transferred onto a polyvinylidene difluorid (PVDF) membrane. The membrane was blocked with 5% non-fat dried milk and incubated with specific antibodies against NS5B (1:5000; Abcam Cambridge, MA, USA), glyceraldehyde-3-phosphate dehydrogenase (GAPDH) and anti-HO-1 (1:3000, Abcam Cambridge, MA, USA). Antibodies were diluted in 5% milk containing Tris-buffered saline (TBS) and 0.5% Tween. The blotting signal was developed using an ECL detection kit (PerkinElmer, Norwalk, CT, USA) and was counted by the software Quantity One (Bio-Rad, Foster, CA, USA).
Compound 6b, 6e, 6h and 6i induced HO-1 protein expression. Ava-5 cells were treated with compounds at 10 μM for 3 days. The cell lysate was subjected to western blotting with anti-HO-1 and anti-GAPDH antibodies.

[2] = system: Nrf2 / ARE transactivation; assay: ARE transactivation, p3xARE-Luc reporter in Ava-5 cells (luciferase assay); type: cell-based; conditions: p3xARE-Luc-transfected Ava-5 cells, 1 and 10 μM, 3 days
Source text: Heme oxygenase 1 expression is regulated by the transcription factors Nrf2, Keap1, and Bach1 through the binding of ARE in its promoter region; therefore, we determined whether isoflavones-mediated HO-1 induction was dependent on ARE transactivation by treating p3xARE-Luc-transfected ava-5 cells with increasing concentrations of […] for 3 days.
Ava5 cells were transfected with the HO-1 promoter-driven luciferase plasmid, pHO-1-Luc, using the T-pro^TM transfection reagent (Ji-Feng Biotechnology Co., Ltd., Taipei, Taiwan) according to the manufacturer′s instructions. The transfected cells were treated with compounds at various concentrations for 3 days. Each transfection complex contains 0.1 μg pSEAP, a secreted alkaline phosphatase (SEAP) expression vector, for normalization luciferase activity serving as a transfection control. The luciferase activity assay was performed using the Bright-Glo Luciferase assay system (Promega) (Madison, WI, USA) according to the manufacturer′s instructions.
Figure 6 Isoflavones inhibited HCV replication by upregulating Nrf2 expression. Compound 6b, 6e, 6h and 6i stimulated ARE transactivation in Ava-5 cells. The antioxidant response reporter plasmid, p3xARE-Luc, was transfected into Ava-5 cells and then treated with isoflavones (1 and 10 μM) for 3 days. The relative induction of antioxidant activity was determined by luciferase assay. The activity of untreated Ava-5 cells was considered to be 1.

3-{{3-{[3-(3,4-Dimethoxyphenyl)-4-oxo-4H-chromen-7-yl]oxy}-2-hydroxypropyl}amino}-2-(1H-indol-3-yl)propanoic acid [Compound 6d]
EC50 (HCV replication): > 20 µM
CC50 (ava-5 cells): 98.8 ± 3.67 µM

c1ccc(Cn2c(-c3ccccc3)cc3c2CCCC3)cc1 [Compound 1, 1-benzyl-2-phenyl-4,5,6,7-tetrahydro-1H-indole]
EC50 (HCV genotype 1b): 7.9 µM
EC50 (HCV genotype 2a): 2.6 µM

CCOC(=O)C1C[C@@H]2/C(=N/Nc3ccccc3)CCCC[C@@H]2N1S(=O)(=O)c1ccc(C)cc1 (stereo partly drawn) [Compound 2, (3aS,8aS,E)-ethyl-4-(2-phenylhydrazono)-1-tosyldecahydro-cyclohepta[b]pyrrole-2-carboxylate]
EC50 (HCV genotype 1b): 1.8 µM
EC50 (HCV genotype 2a): 4.5 µM

O=c1c(O)c(-c2ccc(O)c(O)c2)oc2cc(OCc3cccc(Cl)c3)cc(O)c12 [Compound 3, 7-[(3-chlorobenzyl)oxy]-2-(3,4-dihydroxyphenyl)-3,5-dihydroxy-4H-chromen-4-one]
EC50 (HCV; anti-HCV evaluation of quercetin analogues): 3.8 µM

COc1ccc(Nc2cc3oc(-c4ccco4)nc3c3ccccc23)cc1 [Compound 4, 2-(furan-2-yl)-N-(4-methoxyphenyl)naphtho[1,2-d]oxazol-5-amine]
EC50 (HCV; anti-HCV evaluation of naphtho[1,2-d]oxazole derivatives): 0.63 µM

COc1ccc(-c2coc3cc(OCC(O)CNCCc4ccc(O)cc4)ccc3c2=O)cc1OC (stereo not shown) [Compound 6a, 3-(3,4-Dimethoxyphenyl)-7-{2-hydroxy-3-[(4-hydroxyphenethyl)amino]propoxy}-4H-chromen-4-one]
SI (selectivity index, CC50/EC50) (HCV replication): <3.58
EC50 (HCV replication; Hepatitis C virus, Ava5, 72 h): > 20 µM
CC50 at 72 h [1]: 71.7 ± 4.44 µM
melting point: 117 to 118 °C

COc1ccc(-c2coc3cc(OCC(O)CNCCc4c[nH]c5ccccc45)ccc3c2=O)cc1OC (stereo not shown) [Compound 6c, 7-{3-{[2-(1H-Indol-3-yl)ethyl]amino}-2-hydroxypropoxy}-3-(3,4-dimethoxyphenyl)-4H-chromen-4-one]
SI (selectivity index, CC50/EC50) (HCV replication): 2.26
EC50 (HCV replication; Hepatitis C virus, Ava5, 72 h): 16.3 ± 0.95 µM
CC50 at 72 h [1]: 36.9 ± 0.46 µM
melting point: 178 to 179 °C

CCC(C)(C)NCC(O)COc1ccc2c(=O)c(-c3ccc(OC)c(OC)c3)coc2c1 (stereo not shown) [Compound 6e, 3-(3,4-Dimethoxyphenyl)-7-(2-hydroxy-3-(tert-pentylamino)propoxy)-4H-chromen-4-one]
anti-HCV activity compared with ribavirin (in words) (HCV replication): more active than ribavirin; also recorded: higher anti-HCV effects than ribavirin
SI (selectivity index, CC50/EC50) (HCV replication): 10.80
EC50 (HCV replication; Hepatitis C virus, Ava5, 72 h): 8.14 ± 1.74 µM
CC50 at 72 h [1]: 87.9 ± 2.13 µM
HO-1 protein level (HO-1 protein expression): could induce HO-1 protein level
ARE-mediated luciferase activity [2]: increased ARE-mediated luciferase activity

COc1ccc(-c2coc3cc(OCC(O)CNC(C)(C)c4ccccc4)ccc3c2=O)cc1OC (stereo not shown) [Compound 6f, 3-(3,4-Dimethoxyphenyl)-7-{2-hydroxy-3-[(2-phenylpropan-2-yl)amino]propoxy}-4H-chromen-4-one]
SI (selectivity index, CC50/EC50) (HCV replication): 3.30
EC50 (HCV replication; Hepatitis C virus, Ava5, 72 h): 14.3 ± 0.84 µM
CC50 at 72 h [1]: 47.2 ± 2.74 µM
melting point: 131 to 132 °C

COc1ccc(-c2coc3cc(OCC(O)CNC(C)(C)N4CCOCC4)ccc3c2=O)cc1OC (stereo not shown) [Compound 6g, 3-(3,4-Dimethoxyphenyl)-7-{2-hydroxy-3-[(2-morpholinopropan-2-yl)amino]propoxy}-4H-chromen-4-one]
SI (selectivity index, CC50/EC50) (HCV replication): <7.17
EC50 (HCV replication; Hepatitis C virus, Ava5, 72 h): > 20 µM
CC50 at 72 h [1]: 144 ± 3.82 µM

COc1ccc(-c2coc3cc(OCC(O)CNC(C)(C)Cc4ccc(F)cc4)ccc3c2=O)cc1OC (stereo not shown) [Compound 6h, 3-(3,4-Dimethoxyphenyl)-7-{3-{[1-(4-fluorophenyl)-2-methylpropan-2-yl]amino}-2-hydroxypropoxy}-4H-chromen-4-one]
anti-HCV activity compared with ribavirin (in words) (HCV replication): more active than ribavirin; also recorded: higher anti-HCV effects than ribavirin
SI (selectivity index, CC50/EC50) (HCV replication): 11.87
EC50 (HCV replication; Hepatitis C virus, Ava5, 72 h): 9.35 ± 0.97 µM
CC50 at 72 h [1]: 111 ± 4.39 µM
HO-1 protein level (HO-1 protein expression): could induce HO-1 protein level
ARE-mediated luciferase activity [2]: increased ARE-mediated luciferase activity
melting point: 151 to 152 °C

COc1ccc(-c2coc3cc(OCC(O)CNCC4(N5CCOCC5)CCCCC4)ccc3c2=O)cc1OC (stereo not shown) [Compound 6i, 3-(3,4-Dimethoxyphenyl)-7-{2-hydroxy-3-{[(1-morpholinocyclohexyl)methyl]amino}propoxy}-4H-chromen-4-one]
anti-HCV activity compared with ribavirin (in words) (HCV replication): more active than ribavirin; also recorded: higher anti-HCV effects than ribavirin
SI (selectivity index, CC50/EC50) (HCV replication): 14.55
EC50 (HCV replication; Hepatitis C virus, Ava5, 72 h): 10.7 ± 0.87 µM
CC50 at 72 h [1]: 156 ± 1.58 µM
HO-1 protein level (HO-1 protein expression): could induce HO-1 protein level
ARE-mediated luciferase activity [2]: increased ARE-mediated luciferase activity
melting point: 67 to 68 °C

NC(=O)c1ncn([C@@H]2O[C@H](CO)[C@@H](O)[C@H]2O)n1 [ribavirin, reference compound]
SI (selectivity index, CC50/EC50) (HCV replication): 8.08
EC50 (HCV replication; Hepatitis C virus, Ava5, 72 h): 13.2 ± 1.63 µM
CC50 at 72 h [1]: 106 ± 3.69 µM
